# Source: patent US20220339134A1, “VERY-LONG-CHAIN POLYUNSATURATED FATTY ACIDS, ELOVANOID HYDROXYLATED DERIVATIVES, AND METHODS OF USE” (Board of Supervisors of Louisiana State University and …, priority 2019, published 2022)
# Columns and labels:
# [1] = tested on: human RPE cells; test: Oxidative-stress and Erastin induced cell death in human RPE cells; format: cell-based
# [2] = tested on: RPE single-cells; test: UOS-induced transcriptome changes in RPE single-cells; format: cell-based
# Source text: Dots in box plots represent expression of the gene for a single RPEC (total of 96 per sample). P<0.001 (***), P<0.01 (**), One-way Anova, with Post-Hoc Tukey HSD test for multiple comparisons.
# [3] = tested on: hypothalamic neurons; test: Microelectrode array (MEA) recording of organotypic hypothalamic slices; format: cell-based, Leprdb (db/db diabetic) mice; conditions: 500 nM; db/db male and female mice
# Experimental: We determined whether ex vivo organotypic culture of hypothalamic slices (200 μm in thickness) obtained from brains of C57BL/6J (WT) mice and age matched Leprdb (db/db diabetic) mice were electrically active and capable of firing trains of action potentials using Maestro microelectrode arrays (MEA) performed with MaestroPro MEA system from Axion Biosystems, GA.
# MEA measurements were carried out using a 48-well Microelectrode array (MEA) plate (M768-tMEA-48W) from Axion Biosystems, GA. Each well of the MEA plate, contained a 4×4 grid of […] circular nanoporous PEDOT electrodes embedded in the cell culture substrate, with a pole-to-pole electrode spacing of […]. In preparation for seeding hypothalamic slices, the wells were treated with 0.1% polyethylenimine (PEI) in sodium borate buffer, pH 8.4. Wells were then pre-coated in laminin (6 μg/mL) and the hypothalamic slices (200 μm in thickness) were plated on the electrode grid. […]
# Extracellular recordings of spontaneous action potentials were performed in culture medium at 37° C. using the standard neural setting of the MaestroPro MEA system and AxIS software version 1.5.1.12. […] Recorded spike number per electrode were averaged after disregarding noisy electrodes from analysis. […]
# Using the MEA system, population level electrical activity was recorded from different hypothalamic neurons. […]
# [4] = tested on: RPE and PRC; test: Subretinal injection of OAβ in WT mice +/- ELVs (RPE flat mount, OCT, qPCR, Western blot); format: in vivo; conditions: for OAβ-activated senescence program (p16INK4a, MMP1, p53, p21, p27, Il-6, SASP secretome) followed by RPE and PRC demise: summary of mouse and human RPE data
# Source text: (A) In vivo experimental design: 6-month-old C57BL/6J WT mice were divided into 7 groups (n=12/group): non-injected, PBS, OAβ only, OAβ+ELV-N-32, OAβ+ELV-N-34, ELV-N-32 only and ELV-N-34 only. On day 3, mRNA were isolated for Real-Time PCR. On day 7, mice were subjected to OCT and then eyes enucleated and processed for whole mount RPE staining and Western blots. (B) Whole flat mount of RPE with tight junction marker, Zonula occludens-1 (ZO-1) antibody. OAβ disrupted RPE morphology. (C) OAβ effects on retina and RPE by OCT. (D) Thickness of PRC layer was thinner in OAβ injected group. (E) RPE gene expression after Oaβ (1-42) injection and treatment with ELVs. (E-G) Gene expression in the same functional group were plotted. Senescence- and AMD-related genes (E), and collagenases, gelatinase, stromelysins and others matrix metalloproteinases (MMP) (F) and autophagy (G). (H) p16INK4a, a key marker for senescence, western blots of RPE. (I) Retina apoptosis gene expression after OAβ (1-42) injection and treatment with ELVs. (*P<0.05, student t-test).
# ELVs restore RPE morphology and reduce gene expression after subretinal injection of OAβ in WT mice. (A) Mice were divided into 7 groups: non-injected, PBS, OAβ only, OAβ+ELV-N-32, OAβ+ELV-N-34, ELV-N-32 only and ELV-N-34 only. On day 3, mRNA were isolated for RT-PCR. On day 7, mice were subjected to OCT and then eyes were enucleated and processed to whole mount RPE staining and Western blot. (B) Whole flat mount of RPE. OAβ disrupted RPE morphology. However, RPE were less damage in the ELVs treatment group as well as PBS, ELVs alone did non induce changes. (C) Evaluation the OAβ effects on retina and RPE by OCT. (D) The thickness of PRC was thin in the OAβ injected group. OAβ cause the cell death of PRC, as the thinner in OCT measurement. (E) RPE gene expression after OAβ (1-42) injection and treatment with ELVs. 3 days after injection, the RNAs from RPE were isolated, reverse transcribed into cDNA and subjected to RT-PCR with different primers. Genes in the same functional group were plotted in the same chart, including senescence- and AMD-related genes (E), and collagenases, gelatinase, stromelysins and others matrix metalloproteinases (MMP) (F) and autophagy (G). (H) p16INK4a western blots of RPE/Choroid. […] (I) Retina gene expression after OAβ (1-42) injection and treatment with ELVs. OAβ activates apoptosis genes in the retina. […] (*P<0.05, using student t-test comparison).
# All animal experiments were performed according to ARVO Statement for the Use of Animals in Ophthalmic and Vision Research, and the protocol was approved by LSU Health New Orleans' Institutional Animal Care and Use Committee (IACUC). 6-month-old 5×FAD mice (stock number: 34848-JAX, The Jackson Laboratory, Bar Harbor, Me., USA), co-overexpress FAD mutant forms of human amyloid precursor protein (the Swedish mutation: K670N, M671L; the Florida mutation: I716V; and the London mutation: V7171) and presenilin 1 (PS1, encoded by Psen1: M146L, L286V) transgenes under transcriptional control of the neuron-specific mouse Thy1 promoter. 5×FAD mice were hemizygotes with respect to the transgenes and non-transgenic WT littermates. Genotyping was performed by PCR of tail DNA. All analyses were carried out blind with respect to the mice genotype. For the subretinal injection, 6-month-old C57BL/6J mice were anesthetized by an intraperitoneal injection of ketamine/xylazine, pupils dilated with 1.0% tropicamide (Akorn, Ill., USA); and 0.5% Proparacaine Hydrochloride (Akorn) was applied for topical anesthesia. Eyes were punctured with a 30-gauge needle between the corneoscleral junction and the ora serrata into the vitreous cavity without disturbing the lens. Compounds were delivered to the subretinal region using a 33-gauge blunt needle attached to a 5p.1 Hamilton syringe (Hamilton Company, Reno, Nev., USA) under a dissecting microscope. Non-injected mice were used as negative control while the PBS injected mice were used for sham. […]
# [5] = methyl ester or sodium salt; administered 1 hour following 2 hours of ischemia; cited from earlier work
# [6] = tested on: primary human RPE cells; test: Primary human RPE cells treated with 10 μM OAβ +/- ELVs (SA-β-Gal staining, qPCR); format: cell-based; conditions: 3 days qPCR, 7 days staining
# Experimental: (A) In vitro experimental design: Primary human RPE cells were treated with 10 μM OAβ+/−ELVs. After 3 days, RNA was isolated and qPCR analyzed. After 7 days, cells were subjected to β-Galactosidase staining. (B) Live cell images under bright field microscopy after 7 days. (C) β-Gal staining+/−ELVs. Quantitation of % for the β-Gal positive cells. ELVs decreased positive senescent cells. (D) Gene transcription of senescence, AMD-related and autophagy genes after OAβ (1-42) exposure+/−ELVs. (*P <0.05, student t-test).
# OAβ toxicity is counteracted by ELVs in primary hRPE. (A) Primary hRPE cells were treated with 10 μM OAβ with or without adding ELVs. After 3 days, the total RNA was isolated and q-PCR analyzed. After 7 days, cells were subjected to β-Galactosidase staining. (B) Live cell images of primary hRPE under bright field microscope imaging after 7 days. (C) β-Galactosidase staining of primary hRPE, +/−ELVs. Quantitation of % for the β-Gal positive cells. ELVs decreased positive senescent cells. […]
# Cells were visualized using SA-β-Gal staining kit (Cat 9860, Cell Signaling Technology, MA, USA). […] Pictures were taken under brightfield microscope (Nikon Eclipse TS100) 200× magnification after the development of blue color, and cells counted in 10 different random fields per well. […]
# [7] = co-injected with OAβ subretinally, then topical ELV, day 7
compound,measurement,setting,value
"CC/C=C\C[C@H](O)\C=C/C=C/C=C/[C@H](O)C/C=C\C/C=C\CCC(=O)O [NPD1, 10R,17S-dihydroxy-docosa-4Z,7Z,11E,13E,15Z,19Z-hexaenoic acid, reference compound]",oxidative-stress and Erastin induced cell deaths,[1],counteracted
same,UOS-induced up-regulation of pro-inflammatory transcriptome and down-regulation of pro-homeostatic pathways,[2],suppress these changes
"CC/C=C\C[C@H](O)\C=C/C=C/C=C/[C@H](O)C/C=C\C/C=C\CCCCCCCCCCCCCCC(=O)[O-].[Na+] [ELV-34-6 Na, sodium (16Z,19Z,22R,23E,25E,27Z,29S,31Z)-22,29-dihydroxytetratriaconta-16,19,23,25,27,31-hexaenoate]",spiking activity of hypothalamic slices (MEA),[3],synchronous spiking is restored
"OAβ: oligomerized Aβ (1-42) peptide, used as cytotoxic stressor [reference compound]",PRC layer thickness (OCT),"[4]; OAβ-injected retina, non-injected retina 105 μm",35 μm
CC/C=C\C[C@H](O)\C=C/C=C/C=C/[C@H](O)C/C=C\C/C=C\CCCCCCCCCCCCC(=O)O [ELV-N-32],oxidative-stress and Erastin induced cell deaths,[1],counteracted
same,cell survival,[5],promoted cell survival
same,infarct volumes,[5],reduced infarct volumes
same,neurovascular unit disruption,[5],diminished neurovascular unit disruption
same,PRC degeneration / ONL after ELV injected alone,"[4]; ELV alone, no OAβ, subretinal",did not yield PRC degeneration
same,"PRC protection (PRC layer, OCT)",[4]; [7],protection of PRC
same,RPE morphology (ZO-1 whole flat mount),[4]; [7],restoration of RPE morphology
same,p16INK4a protein (western blot of RPE/Choroid),"[4]; elevated by OAβ injection, day 7",down regulated
same,"OAβ-activated senescence program (p16INK4a, MMP1, p53, p21, p27, Il-6, SASP secretome) followed by RPE and PRC demise",[4],blunt these events and elicit protection to both cells
same,"OAβ-activated senescence program (p16INK4a, MMP1, p53, p21, p27, Il-6, SASP secretome) followed by RPE and PRC demise",[4]; listed as ELV 32,downregulatory mediators of OAβ-evoked senescence
same,"OAβ-activated senescence program (p16INK4a, MMP1, p53, p21, p27, Il-6, SASP secretome) followed by RPE and PRC demise",[4]; listed as elovanoid 32,blunt these events and elicits protection
same,"OAβ effects: RPE cell morphology, SASP (SA-β-Gal), senescence, AMD, MMP and autophagy gene expression",[6],reverted these effects
same,UOS-induced up-regulation of pro-inflammatory transcriptome and down-regulation of pro-homeostatic pathways,[2],suppress these changes
